Experimental data reported in article PMC5997364, “OG716: Designing a fit-for-purpose lantibiotic for the treatment of Clostridium difficile infections” (PLoS ONE, 2018).
Values after ≈ are worked out from the molar mass of the structure shown. Values joined by “and” are separate entries in the source; they are usually repeats but may differ in a detail not shown here. Identical values can stand only once. Like-named read-outs stand apart in the source and are kept apart here. Ends that are not written are not given here.

How the values were obtained:
C. difficile [1] = assay: microbe, parasite or virus in culture; assay type: cell-based, Clostridium difficile
Description: MIC testing for C. difficile was performed by Eurofins Panlabs Taiwan LTD based on modifications from the CLSI M11-A8 broth dilution method for Bacteroides fragilis susceptibility testing. Briefly, Reinforced Clostridial Medium (RCM) was pre-reduced by over-night incubation in an anaerobic chamber (80% N2, 10% CO2, and 10% H2) prior to use. MU1140 and variants were dissolved in 100% DMSO, diluted by 2-fold serial dilution in 100% DMSO, for a total of 11 concentrations. A 4 μL aliquot of each dilution was added to 96 μL RCM in wells of a 96 well plate using a Biomek FX instrument (Beckman Coulter, USA), followed by the addition of C. difficile suspension, in RCM, 100 μL/well. The final bacterial count was 2 x 10^5 to 1 x 10^6 colony forming units/mL, in 200 μL per assay well. […] Assay plates were incubated at 35°C for 46 to 48 hr in the anaerobic chamber (A35 Anaerobic Workstation, Don Whitley, UK). Following incubation, test plates were visually examined and each well was scored for growth then the MIC was recorded as the lowest concentration that results in complete inhibition of growth. Each test substance was evaluated in duplicate. Vehicle-control and vancomycin were used as blank and positive controls, respectively. The MIC values of the vancomycin controls were consistent with the historical data against test strains (data not shown).

[2] = 5% D-mannitol
Description: (§1) To that end, approximately 10 mg of each compound was weighed on a high-precision balance and dispensed into a 1.5 mL microfuge tube.

[3] = 1.0 mg/mL in water
Description: Five aliquots of each compound were prepared by dissolving them to 1.0 mg/mL in HPLC grade water (Fisher Scientific, USA). A total of 2 aliquots of the solution were placed in a 37°C stability chamber, and 2 aliquots were placed in a 50°C chamber. Samples were collected on days 0, 2 and 7, centrifuged at 12,000 x g for 5 min, and the supernatants were transferred to a fresh tube. Each sample was diluted 1:4 with 0.05% trifluoroacetic acid (TFA) and the purity and quantity were analyzed by HPLC as described above.

[4] = Solubility 5% D-mannitol, 5% D-mannitol in water, visual assessment
Description: as §1

[5] = FaSSIF with trypsin/chymotrypsin
Description: FaSSIF was supplemented with 2% pancreatin (w/v), 6 μg/mL of trypsin and 6 μg/mL of α-chymotrypsin and was prepared as previously reported [22]. All proteases were from Fisher ScientificSamples were collected at the same frequency as in the FaSSGF study, and analyzed using the same method.

C. difficile [6] = tested on: C. difficile; parameters: method as in PMID 20974818; conditions: cited from earlier work
C. difficile UNT103-1 = assay: Golden Syrian hamster model of CDAD, oral gavage efficacy; assay type: in vivo
Description: In vivo efficacy was performed as previously described in detail, except that the compounds were administered via oral gavage (rather than the illeal cannulation method used previously). This study was carried out in accordance with protocols 2016–0015 approved by the Institutional Animal Care and Use Committee (IACUC) at the University of North Texas Health Science Center (UNTHSC). IACUC established guidelines ensuring that approved protocols are in compliance with federal and state laws regarding animal care and use activity at UNTHSC. The UNTHSC animal program in USDA registered (74-R0081) and fully AAALAC accredited.
Briefly, 7–8 weeks old Male Golden Syrian hamsters were used in this study, and weighted 100–120 g (Charles River Laboratories, Wilmington, MA). C. difficile UNT103-1 (VA11, non epidemic (cdtB-, REA group J) was received from Curtis Donskey, Cleveland VA Hospital, Cleveland, OH) and cultured as previously described. The isolate has been previously utilized for the hamster model by the University of North Texas Health Sciences Center (UNTHSC). The infection inoculum was tested to determine the ratio of spores to vegetative cells. In accordance with the details in Table 2, a total of 60 animals were used in this study. Animals were randomized into the 10 study groups (N = 6 per group) prior to treatment. On Day 0, animals were infected with 5.63 x 10^7 total CFU of which 2.81 x 10^4 represented inoculated spores. On Day 1, at 24 hrs post-infection, all animals received a single subcutaneous injection of clindamycin (10 mg/kg). Test articles in 5% mannitol were then administered orally 3x per day (TID), starting on Day 2 at 18 hours after clindamycin injection, for 5 consecutive days (Days 2 through 6). USP-grade vancomycin (positive control) was prepared in water for injection (WFI) at 50 mg/mL and stored refrigerated during the course of the study. […] Data was analyzed using GraphPad Prism 6.0d. […]
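Wherever Forced degradation Δ Conc is given: purity and concentration determined by HPLC on aqueous solutions kept in a stability chamber, with samples analyzed at day 0 and after incubation.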
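Wherever Forced degradation Δ Purity is given: purity and concentration determined by HPLC on aqueous solutions kept in a stability chamber, with samples analyzed at day 0 and after incubation.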

Compound | MIC 50 (C. difficile [1]) [µg/mL] | MIC 90 (C. difficile [1]) [µg/mL] | MIC Mode (C. difficile [1]) [µg/mL] | MIC Range (C. difficile [1]) [µg/mL] | Minimum Inhibitory Concentration C. difficile 103-1 (C. difficile [1]) [µg/mL] | Minimum Inhibitory Concentration C. difficile 107-1 (C. difficile [1]) [µg/mL] | Minimum Inhibitory Concentration C. difficile ATCC 9689 (C. difficile [1]) [µg/mL] | Minimum Inhibitory Concentration C. difficile ATCC 43597 (C. difficile [1]) [µg/mL] | Minimum Inhibitory Concentration C. difficile ATCC BAA-1805 (C. difficile [1]) [µg/mL] | Minimum Inhibitory Concentration C. difficile ATCC BAA-1808 (C. difficile [1]) [µg/mL] | Minimum Inhibitory Concentration C. difficile ATCC BAA-1874 (C. difficile [1]) [µg/mL] | Minimum Inhibitory Concentration C. difficile ATCC BAA-1875 (C. difficile [1]) [µg/mL] | Forced degradation Δ Conc ([3]; 2 Days at 37°C) | Forced degradation Δ Purity ([3]; 2 Days at 37°C) [%] | Forced degradation Δ Conc ([3]; 2 Days at +50°C) | Forced degradation Δ Purity ([3]; 2 Days at +50°C) [%] | Forced degradation Δ Conc ([3]; 7 Days at 37°C) | Forced degradation Δ Purity ([3]; 7 Days at 37°C) [%] | Forced degradation Δ Conc ([3]; 7 Days at +50°C) | Forced degradation Δ Purity ([3]; 7 Days at +50°C) [%] | further results
C=C1NC(=O)[C@H](Cc2c[nH]c3ccccc23)NC(=O)[C@H](NC(=O)[C@H](CCCCN)NC(=O)[C@@H](N)[C@@H](C)CC)CSC[C@@H](C(=O)N[C@H]2C(=O)N3CCC[C@H]3C(=O)NCC(=O)N[C@H](C(=O)N[C@@H](C)C(=O)N[C@@H](CC(=O)O)C(=O)N/C(=C\C)C(=O)NCC(=O)N[C@@H]3CSC[C@@H]4NC(=O)[C@H](Cc5ccc(O)cc5)NC(=O)[C@@H](CS/C=C\NC4=O)NC(=O)[C@H](CC(N)=O)NC(=O)[C@H](Cc4ccccc4)NC3=O)CS[C@H]2C)NC(=O)[C@H](CC(C)C)NC1=O [OG703] | 1 (≈ 0.457 µM) | 2 (≈ 0.913 µM) | 1 (≈ 0.457 µM) | 0.5 to 2 | 0.5 | 2 | 2 | 1 | 1 | 1 | 0.5 | 1 | -9.2% and -9% | -0.97 | -15% | -1.74 | -13.4% and -13% | -1.04 | -30.3% and -30% | -4.79 | solubility reduced relative to OG706 [2]: 2-3 fold; solubility [4]: 7 mg/mL (≈ 3200 µM)
C=C1NC(=O)[C@H](Cc2c[nH]c3ccccc23)NC(=O)[C@H](NC(=O)[C@H](CCCCN)NC(=O)[C@@H](N)[C@@H](C)CC)CSC[C@@H](C(=O)N[C@H]2C(=O)N3CCC[C@H]3C(=O)NCC(=O)N[C@H](C(=O)N[C@@H](C)C(=O)N[C@@H](C)C(=O)N/C(=C\C)C(=O)NCC(=O)N[C@@H]3CSC[C@@H]4NC(=O)[C@H](Cc5ccc(O)cc5)NC(=O)[C@@H](CS/C=C\NC4=O)NC(=O)[C@H](CC(N)=O)NC(=O)[C@H](Cc4ccccc4)NC3=O)CS[C@H]2C)NC(=O)[C@H](CC(C)C)NC1=O [OG711] | 0.5 (≈ 0.233 µM) | 1 (≈ 0.466 µM) | 0.25 (≈ 0.117 µM) | 0.25 to 1 | 0.25 | 1 | 1 | 0.5 | 0.25 | 0.25 | 0.5 | 0.5 | -12.5% and -13% | -1.24 | -8.7% and -9% | -0.61 | -10.8% and -11% | -0.63 | -40.1% and -40% | -2.94 | improvement in half-life in FaSSIF (stability to proteolytic degradation) relative to OG253 [5]: > 50 fold; solubility [4]: 12 to 18 mg/mL (≈ 5590 to 8390 µM)
C=C1NC(=O)[C@H](Cc2c[nH]c3ccccc23)NC(=O)[C@H](NC(=O)[C@H](CCCCN)NC(=O)[C@@H](N)[C@@H](C)CC)CSC[C@@H](C(=O)N[C@H]2C(=O)N3CCC[C@H]3C(=O)NCC(=O)N[C@H](C(=O)N[C@@H](C)C(=O)N[C@@H](CC(N)=O)C(=O)N/C(=C\C)C(=O)NCC(=O)N[C@@H]3CSC[C@@H]4NC(=O)[C@H](Cc5ccc(O)cc5)NC(=O)[C@@H](CS/C=C\NC4=O)NC(=O)[C@H](CC(N)=O)NC(=O)[C@H](Cc4ccccc4)NC3=O)CS[C@H]2C)NC(=O)[C@H](CC(C)C)NC1=O [OG706] | 0.5 (≈ 0.228 µM) | 1 (≈ 0.457 µM) | 0.5 (≈ 0.228 µM) | 0.125 to 1 | 0.125 | 1 | 0.5 | 0.25 | 0.25 | 0.5 | 0.5 | 0.5 | -11.3% and -11% | -1.15 | -23% | -8.05 | -20% | -6.64 | -50.1% and -50% | -21.46 | solubility [4]: 18 to 24 mg/mL (≈ 8220 to 11000 µM)
gallidermin (IASKFLCTPGCAKTGSFNSYCC; also: lantibiotic (lanthionine rings and dehydro residues not given here); UniProt P21838 31-52, looked up) [lantibiotic / cationic antimicrobial peptide] |  |  |  |  |  |  |  |  |  |  |  |  |  |  |  |  |  |  |  |  | MIC increase of C. difficile (C. difficile [6]; cpr induction in vitro): 2–4 fold; MIC of C. difficile (C. difficile [6]; level reached after MIC increase (cpr induction)): ~ 1 μg/ml
CN[C@H](CC(C)C)C(=O)N[C@H]1C(=O)N[C@@H](CC(N)=O)C(=O)N[C@H]2C(=O)N[C@H]3C(=O)N[C@H](C(=O)N[C@H](C(=O)O)c4cc(O)cc(O)c4-c4cc3ccc4O)[C@H](O)c3ccc(c(Cl)c3)Oc3cc2cc(c3O[C@@H]2O[C@H](CO)[C@@H](O)[C@H](O)[C@H]2O[C@H]2C[C@](C)(N)[C@H](O)[C@H](C)O2)Oc2ccc(cc2Cl)[C@H]1O [Vancomycin, reference compound] |  |  |  |  |  |  |  |  |  |  |  |  |  |  |  |  |  |  |  |  | survival (C. difficile UNT103-1; 20 mg/kg oral gavage x 5 days (test compounds TID, vancomycin QD), outcome of the study (Day 21)): 83%; C. difficile spore count of cecal samples (C. difficile UNT103-1; 20 mg/kg oral gavage x 5 days, cecal contents at death or Day 21): 2.96 log10 CFU/mL; spore counts compared to control (vehicle-treated) animals (C. difficile UNT103-1; cecal contents at death or Day 21): significantly lower; Minimum Inhibitory Concentration C. difficile Range (C. difficile [1]; 8 C. difficile strains): 0.5 to 4 mg/mL; MIC 50 (C. difficile [1]; Clostridioides difficile): 0.5 µg/mL (≈ 0.345 µM); MIC 90 (C. difficile [1]; Clostridioides difficile): 4 µg/mL (≈ 2.76 µM); MIC Range (C. difficile [1]; panel of C. difficile strains, n = 8): 0.5 to 4 µg/mL
